Assay results: patent EP1590332B1, “A PROCESS FOR THE SYNTHESIS OF BISBENZIMIDAZOLES AND THEIR DERIVATIVES” (University of Delhi, priority 2003, dated 2004)
Like-named read-outs stand apart in the source and are kept apart here.

Experiments:
[1] = tested on: human brain malignant glioma cell line BMG-1; assay: MTT microtiter plate tetrazolium cytotoxicity assay; format: cell-based; details: cells treated 1 h
Description: (§1) The cytotoxic effect of DMA and TBZ on exponentially growing tumor cells BMG-1 was studied as a function of time. Cells were treated for 1 h with the ligands and allowed to grow for 24, 48 and 72 hours. The MTT assay was performed at the specified time points. […] There seemed to be no effect on the metabolic status of the treated cells. However, strikingly the metabolic activity of the treated cells seemed to be enhanced as compared to the untreated control cells. To further support our results we have performed cell survival assay at 0.1uM, 10uM and 100uM concentration of drug having control as untreated cell. These experiments were done thrice in six sets. Exponentially growing cells were used in these experiments and cell survival was studied using Macrocolony assay. The plating efficiency was nearly 77%. […] The increase in cell number as a function of time for the control as well as the treated cells remained same. The radioprotective effect of the newly synthesized ligands were studied spectroscopically as well as in human brain glioma cell line BMG-1. The spectroscopic studies done included UV-Vis sepctroscopy, Fluorescence spectroscopy, Anisotropy measurements and Lifetime measurements and Thermal denaturation studies. Calf thymus DNA was chosen as the DNA material and ligands were incubated with the DNA and irradiated at different doses of radiation. […] At the cellular level also, the ligands were incubated with the cells and cell survival assay was performed to study the radioprotective effect of the new ligands in comparison to the parent molecule Hoechst 33342.
The cytotoxicity was determined using the MTT microtiter plate tetrazolium cytotoxicity assay (MTA). The human brain malignant glioma cell line BMG-1 was used. The cytotoxicity assay was performed using 96-well microtiter plates. 3000 cells/ well were plated and treatment of the ligands was done 24 hours post plating. […] 150 µl of DMSO was added and the plate was read at 540 nm with reference at 630 nm.

Hek cells = assay: Macrocolony assay (cell survival assay) with 5 Gy irradiation; format: cell-based, human; details: 10uM drug added 1h before irradiation; for viability at 10 µM: Homo sapiens, HEK293, light or radiation study, read-out: Survival friction
Description: Both cell lines in triplicate were washed with HBSS, plated and grown for four days before harvesting using 0.05% trypsin, Depending on the treatments, 200 to 1200 cells were plated in 90 mm petri dishes and incubated at 37°C in 5% CO2 humidified atmosphere for 8 to 10 days. Colonies were fixed with methanol and stained with 1 % crystal violet Colonies containing more than 50 cells were counted.
Exponentially growing cells, 24 h after plating were irradiated at room temperature in growth medium with a Co-60 source (Gamma cell, AECL, Canada) at a dose rate of 0.5 to 1.2 Gy/min. Concentration of 10µm drug was added 1h before irradiation. Following this procedure, cells were grown for various time intervals to study growth kinetics and plated for Macrocolony assay as shown in the following Tables 3 & 4 and figure 1 & 2 Table 3

Calf thymus DNA = assay: Thermal denaturation / spectroscopic studies of ligand-DNA complex in presence and absence of radiation; format: binding
Description: as §1

BMG-1 cells [2] = assay: Proliferation kinetics (growth kinetics); format: cell-based, human; details: 100µM, exponentially growing cells
Description: The cytotoxic effect of DMA and TBZ on exponentially growing tumor cells BMG-1 was studied as a function of time. Cells were treated for 1 h with the ligands and allowed to grow for 24, 48 and 72 hours. The MTT assay was performed at the specified time points. […] There seemed to be no effect on the metabolic status of the treated cells. However, strikingly the metabolic activity of the treated cells seemed to be enhanced as compared to the untreated control cells. To further support our results we have performed cell survival assay at 0.1uM, 10uM and 100uM concentration of drug having control as untreated cell. These experiments were done thrice in six sets. Exponentially growing cells were used in these experiments and cell survival was studied using Macrocolony assay. The plating efficiency was nearly 77%. […] The increase in cell number as a function of time for the control as well as the treated cells remained same. […] The spectroscopic studies done included UV-Vis sepctroscopy, Fluorescence spectroscopy, Anisotropy measurements and Lifetime measurements and Thermal denaturation studies. […]
Cells were washed with HBSS and harvested using 0.05% trypsin. […] Proliferation Kinetics BMG-1 cells were seeded at 7000-8000 cells/ cm^2, and their proliferation kinetics was measured at 24-h intervals by trypsinizinig and counting total cells per flask using a hemocytometer. […]

BMG-1 cells [3] = tested on: BMG-1 cells
Description: (§2) The cytotoxic effect of DMA and TBZ on exponentially growing tumor cells BMG-1 was studied as a function of time. Cells were treated for 1 h with the ligands and allowed to grow for 24, 48 and 72 hours. The MTT assay was performed at the specified time points. […] These experiments were done thrice in six sets. Exponentially growing cells were used in these experiments and cell survival was studied using Macrocolony assay.
(§3) Cells were washed with HBSS and harvested using 0.05% trypsin. […] Colonies were fixed in methanol and stained with 1% crystal violet. Proliferation Kinetics BMG-1 cells were seeded at 7000-8000 cells/ cm^2, and their proliferation kinetics was measured at 24-h intervals by trypsinizinig and counting total cells per flask using a hemocytometer.

BMG-1 cells [4] = assay: cells; details: Homo sapiens
Description: as §2, §3

in vitro = details: bmg-1 cells
Description: as §2, §3

[5] = Ratio [ligand]/[DNA] 0.01, Dose 0 Gy
[6] = Ratio [ligand]/[DNA] 0.01, Dose 100 Gy
[7] = Ratio [ligand]/[DNA] 0.1, Dose 0 Gy
[8] = Ratio [ligand]/[DNA] 0.1, Dose 100 Gy
[9] = Table 3: BMG-1, 5 Gy irradiation, 10uM drug added 1h before irradiation
[10] = light or radiation study, read-out: Survival fraction, 1uM, no irradiation
[11] = light or radiation study, read-out: Survival fraction, 10uM, no irradiation
[12] = light or radiation study, read-out: Survival fraction, 100uM, no irradiation
[13] = light or radiation study, read-out: Survival fraction, Table 3: BMG-1, 5 Gy irradiation, 10uM drug added 1h before irradiation
[14] = read-out: Survival fraction, 1uM + 5 Gy
[15] = read-out: Survival fraction, 10uM + 2Gy
[16] = read-out: Survival fraction, 10uM + 5 Gy (Table 2)
[17] = read-out: Survival fraction, 10uM + 10 Gy
[18] = read-out: Survival fraction, 100uM + 5 Gy

| Structure (SMILES) | cytotoxicity ([1]; 100µM, MTT up to 72 hours) | Plating efficiency % (Hek cells) [%] | viability at 10 µM (Hek cells) [%] | Tm (Calf thymus DNA; [5]) [°C] | Tm (Calf thymus DNA; [6]) [°C] | Tm (Calf thymus DNA; [7]) [°C] | Tm (Calf thymus DNA; [8]) [°C] | Plating efficiency % (BMG-1 cells [3]; 1uM + 5 Gy) [%] | Plating efficiency % (BMG-1 cells [3]; 1uM, no irradiation) [%] | Plating efficiency % (BMG-1 cells [3]; 10uM + 2Gy) [%] | Plating efficiency % (BMG-1 cells [3]; 10uM + 5 Gy (Table 2)) [%] | Plating efficiency % (BMG-1 cells [3]; 10uM + 10 Gy) [%] | Plating efficiency % (BMG-1 cells [3]; 10uM, no irradiation) [%] | Plating efficiency % (BMG-1 cells [3]; 100uM + 5 Gy) [%] | Plating efficiency % (BMG-1 cells [3]; 100uM, no irradiation) [%] | Plating efficiency % (BMG-1 cells [3]; [9]) [%] | viability at 1 µM (BMG-1 cells [4]; [10]) [%] | viability at 10 µM (BMG-1 cells [4]; [11]) [%] | viability at 100 µM (BMG-1 cells [4]; [12]) [%] | viability at 10 µM (BMG-1 cells [4]; [13]) [%] | further results |
| --- | --- | --- | --- | --- | --- | --- | --- | --- | --- | --- | --- | --- | --- | --- | --- | --- | --- | --- | --- | --- | --- |
| COc1cc(-c2nc3cc(-c4nc5cc(-c6nc7cc(N8CCN(C)CC8)ccc7[nH]6)ccc5[nH]4)ccc3[nH]2)ccc1O [TBZ, 5-(4-methylpiperazine-1-yl)-2-[2'-{2"-(4-hydroxy-3-methoxyphenyl)-5"-benzimidazolyl}-5'-benzimidazolyl]benzimidazole] | do not show any cytotoxicity | 25 | 48 | 74.3 | 75 | 77.7 | 81.5 | 21 | 73 | 60 | 20 | 3.5 | 71 | 18 | 69 | 20 | 107 | 105 | 102 | 30 | growth kinetics of the treated cells (BMG-1 cells [2]): did not differ from the untreated cells; effect on growth (BMG-1 cells [3]; 10µM, no irradiation): increase in growth; radioprotection in comparison to Hoechst 33342 (BMG-1 cells [3]; conclusion from BMG-1 and Hek cell lines): better radioprotectors; effect on growth (BMG-1 cells [3]; low concentrations (upto 10µM), no irradiation): slight stimulatory effect on growth; viability at 1 µM (BMG-1 cells [4]; [14]): 31%; viability at 10 µM (BMG-1 cells [4]; [15]): 89%; viability at 10 µM (BMG-1 cells [4]; [16]): 30%; viability at 10 µM (BMG-1 cells [4]; [17]): 5%; viability at 100 µM (BMG-1 cells [4]; [18]): 26%; cytotoxicity at 100 µM (in vitro): 9%; viability at 100 µM (in vitro): 92% |
| CCOc1ccc(-c2nc3ccc(-c4nc5ccc(N6CCN(C)CC6)cc5[nH]4)cc3[nH]2)cc1 [Hoechst 33342, reference compound] |  | 20 | 10 |  |  |  |  |  |  |  |  |  |  |  |  | 20 |  |  |  | 10 | cytotoxicity ([1]; 10µM, MTT at 24, 48 and 72 hours): highly cytotoxic; effect on cell survival (BMG-1 cells [3]; low concentrations, no irradiation): do not seem to have considerable effect on cell survival; viability at 100 µM (in vitro; cell survival, 100µM, no irradiation): 10%; viability at 10 µM (in vitro; surviving fraction, 10µM, no irradiation): 45% |
| COc1ccc(-c2nc3cc(-c4nc5cc(N6CCN(C)CC6)ccc5[nH]4)ccc3[nH]2)cc1OC [DMA, 5-(4-methylpiperazin-1-yl)-2-[2'-(3,4-dimethoxyphenyl)-5'-benzimidazolyl]benzimidazole] | do not show any cytotoxicity | 27 | 50 |  |  |  |  | 22 | 65 | 63 | 27 | 4 | 67 | 25 | 64 | 27 | 97 | 100 | 95 | 40 | viability at 1 µM (BMG-1 cells [4]; [14]): 32%; viability at 10 µM (BMG-1 cells [4]; [15]): 93%; viability at 10 µM (BMG-1 cells [4]; [16]): 40%; viability at 10 µM (BMG-1 cells [4]; [17]): 6%; viability at 100 µM (BMG-1 cells [4]; [18]): 38%; cytotoxicity at 10 µM (in vitro): 3%; viability at 100 µM (in vitro): 73% |
| CN1CCN(c2ccc3nc(-c4ccc5nc(-c6ccc(O)cc6)[nH]c5c4)[nH]c3c2)CC1 [Hoechst 33258, reference compound] |  |  |  | 71.5 | 67.5 | 81.7 | 79.3 |  |  |  |  |  |  |  |  |  |  |  |  |  |  |
